US8268827B2, “Pyridazinone derivatives as PARP inhibitors” (Istituto di Ricerche di Biologia Molecolare P. Angeletti …, priority 2007, dated 2012)
Structures can show the parent of a compound that is named as a salt.

Test system: BRCA-1 silenced HeLa cells (HeLa shBRCA1-GFP)
Experiment: Proliferation assay in BRCA-1 silenced HeLa cells
Assay type: cell-based
Settings: Homo sapiens; BRCA1 silenced HeLa cells, 168 hours; read-out: CC50 in the BRCA1 silenced HeLa cells
Protocol: Proliferation Assay in BRCA-1 Silenced HeLa Cells
Compounds of the present invention were also tested in an anti-proliferative assay in matched pair BRCA1 wt and BRCA1-(shRNA) HeLa cells.
The assay is based on the ability of living cells to convert a redox dye (resazurin) into a fluorescent end product (resofurin). The amount of resofurin produced is directly proportional to the cell number.
HeLa shBRCA1-GFP—These are HeLa cells transduced at an MOI of 100 with a Lentivirus containing a shRNA against BRCA-1 and an expression cassette for GFP. BRCA-1 silencing is more than 80% as assessed by Taqman analysis and the cells stably express GFP.
HeLa THM-GFP—These are HeLa cells transduced at an MOI of 100 with a control vector not expressing any shRNA.
• Seed 300 cell/well in 96 wells viewplate black in 90 ul culture Medium*: • Incubate 4 hours at 37° C., 5% CO2 • Add 10 ul/well of 10× compound (5% DMSO in H2O) • Incubate for 168 hours at 37° C., 5% CO2 • Add 10 ul of Celltiter Blue solution (Promega, G8081) pre-diluted 1:1 in PBS1× • Incubate the mixture for 45′ at 37° C., 5% CO2 • Incubate 15′ at RT in the dark • Read plate at fluorimeter ex: 550 nm; em: 590 nm *Culture Medium: DMEM (GIBCO, 41966-029), 10% FCS (GIBCO, 10106-169), 0.1 mg/ml Penicillin-Streptomycin (GIBCO, 15140-114), 2 mM L-Glutamine (GIBCO, 3042190)

`Cc1c(Cc2ccc(F)c(C(=O)N3CC(=O)N4[C@@H](CCC[C@H]4C)C3)c2)n[nH]c(=O)c1C` (racemic) [Example 85, 6-{4-Fluoro-3-[(cis-6-methyl-4-oxooctahydro-2H-pyrido[1,2-a]pyrazin-2-yl)carbonyl]benzyl}-4,5-dimethyl-3-oxo-2,3-dihydropyridazin-1-ium trifluoroacetate] and `Cc1c(Cc2ccc(F)c(C(=O)N3CC(=O)N4[C@@H](CCC[C@@H]4C)C3)c2)n[nH]c(=O)c1C` (single isomer, unassigned) [86 (TT1)] cannot be ordered by CC50: < 50 nM for the first, < 50 nM for the second.

Compared with `Cc1c(Cc2ccc(F)c(C(=O)N3CC(=O)N([C@H]4CCOC4)[C@H](C)C3)c2)n[nH]c(=O)c1C` (single isomer, unassigned) [75 (II4A)], `Cc1c(Cc2ccc(F)c(C(=O)N3CC(=O)N([C@H]4CCOC4)[C@@H](C)C3)c2)n[nH]c(=O)c1C` (single isomer, unassigned) [75 (II4B)] is lower in CC50: 50 to 500 nM for the first, < 50 nM for the second.

First: Cc1c(Cc2ccc(F)c(C(=O)N3CC(=O)N4[C@H](CCC[C@H]4C)C3)c2)n[nH]c(=O)c1C (single isomer, unassigned) [86 (TT2)]
Second: Cc1c(Cc2ccc(F)c(C(=O)N3CCN(C4CCCC4)C(=O)C3)c2)n[nH]c(=O)c1C [Example 3, 6-{3-[(4-Cyclopentyl-3-oxopiperazin-1-yl)carbonyl]-4-fluorobenzyl}-4,5-dimethylpyridazin-3(2H)-one]
The CC50 of the first is higher: 50 to 500 nM for the first, < 50 nM for the second.

First: C[C@H]1CCC[C@H]2CN(C(=O)c3cc(Cc4cc(C(F)(F)F)c(=O)[nH]n4)ccc3F)CC(=O)N21 (single isomer, unassigned) [88 (VV1)]
Second: C[C@@H]1CCC[C@@H]2CN(C(=O)c3cc(Cc4cc(C(F)(F)F)c(=O)[nH]n4)ccc3F)CC(=O)N21 (single isomer, unassigned) [88 (VV2)]
The CC50 of the first is lower: < 50 nM for the first, 50 to 500 nM for the second.

`Cc1c(Cc2ccc(F)c(C(=O)N3CCN(c4ccccc4)C(=O)C3)c2)n[nH]c(=O)c1C` [Example 1, 6-{4-Fluoro-3-[(3-oxo-4-phenylpiperazin-1-yl)carbonyl]benzyl}-4,5-dimethyl-3-oxo-2,3-dihydropyridazin-1-ium trifluoroacetate] and `Cc1c(Cc2ccc(F)c(C(=O)N3CCN(c4cccc(Cl)c4)C(=O)C3)c2)n[nH]c(=O)c1C` [Example 9, 6-(3-{[4-(3-Chlorophenyl)-3-oxopiperazin-1-yl]carbonyl}-4-fluorobenzyl)-4,5-dimethyl-3-oxo-2,3-dihydropyridazin-1-ium trifluoroacetate] cannot be ordered by CC50: < 50 nM for the first, < 50 nM for the second.

`Cc1c(Cc2ccc(F)c(C(=O)N3CCN(C4CCCCC4)C(=O)C3)c2)n[nH]c(=O)c1C` [Example 2, 6-{3-[(4-Cyclohexyl-3-oxopiperazin-1-yl)carbonyl]-4-fluorobenzyl}-4,5-dimethyl-3-oxo-2,3-dihydropyridazin-1-ium trifluoroacetate] and `Cc1c(Cc2ccc(F)c(C(=O)N3CCN(C4CCCCC4)C(=O)C3)c2)n[nH]c(=O)c1C(F)(F)F` [Example 25, 3-{3-[(4-Cyclohexyl-3-oxopiperazin-1-yl)carbonyl]-4-fluorobenzyl}-4-methyl-6-oxo-5-(trifluoromethyl)-1,6-dihydropyridazin-1-ium trifluoroacetate] cannot be ordered by CC50: < 50 nM for the first, < 50 nM for the second.

`CCc1cc(Cc2ccc(F)c(C(=O)N3CCN(c4ccccc4)C(=O)C3)c2)n[nH]c1=O` [Example 5, 4-Ethyl-6-{4-fluoro-3-[(3-oxo-4-phenylpiperazin-1-yl)carbonyl]benzyl}pyridazin-3(2H)-one trifluoroacetate] and `CCc1cc(Cc2ccc(F)c(C(=O)N3CCN(C4CCCCC4)C(=O)C3)c2)n[nH]c1=O` [Example 6, 6-{3-[(4-Cyclohexyl-3-oxopiperazin-1-yl)carbonyl]-4-fluorobenzyl}-4-ethylpyridazin-3(2H)-one trifluoroacetate] fall in the same range of CC50: 50 to 500 nM for the first, 50 to 500 nM for the second.

`Cc1c(Cc2ccc(F)c(C(=O)N3CCN(Cc4ccc(F)cc4)C(=O)C3)c2)n[nH]c(=O)c1C` [Example 8, 3-(4-Fluoro-3-{[4-(4-fluorobenzyl)-3-oxopiperazin-1-yl]carbonyl}benzyl)-4,5-dimethyl-6-oxo-1,6-dihydropyridazin-1-ium trifluoroacetate] and `COc1ccc(CN2CCN(C(=O)c3cc(Cc4n[nH]c(=O)c(C)c4C)ccc3F)CC2=O)cc1` [Example 20, 6-(4-Fluoro-3-{[4-(4-methoxybenzyl)-3-oxopiperazin-1-yl]carbonyl}benzyl)-4,5-dimethylpyridazin-3(2H)-one trifluoroacetate] cannot be ordered by CC50: < 5000 nM for the first, 50 to 500 nM for the second.

`Cc1c(Cc2ccc(F)c(C(=O)N3CCN(c4ccc(F)c(Cl)c4)C(=O)C3)c2)n[nH]c(=O)c1C` [Example 10, 6-(3-{[4-(3-Chloro-4-fluorophenyl)-3-oxopiperazin-1-yl]carbonyl}-4-fluorobenzyl)-4,5-dimethyl-3-oxo-2,3-dihydropyridazin-1-ium trifluoroacetate] and `Cc1c(Cc2ccc(F)c(C(=O)N3CCN(c4ccc(F)c(F)c4)C(=O)C3)c2)n[nH]c(=O)c1C` [Example 11, 6-(3-{[4-(3,4-Difluorophenyl)-3-oxopiperazin-1-yl]carbonyl}-4-fluorobenzyl)-4,5-dimethyl-3-oxo-2,3-dihydropyridazin-1-ium trifluoroacetate] cannot be ordered by CC50: < 50 nM for the first, < 50 nM for the second.

Compared with `Cc1c(Cc2ccc(F)c(C(=O)N3CCN(c4cc(F)cc(F)c4)C(=O)C3)c2)n[nH]c(=O)c1C` [Example 12, 6-(3-{[4-(3,5-Difluorophenyl)-3-oxopiperazin-1-yl]carbonyl}-4-fluorobenzyl)-4,5-dimethyl-3-oxo-2,3-dihydropyridazin-1-ium trifluoroacetate], `Cc1cc(C)cc(N2CCN(C(=O)c3cc(Cc4n[nH]c(=O)c(C)c4C)ccc3F)CC2=O)c1` [Example 23, 6-(3-{[4-(3,5-Dimethylphenyl)-3-oxopiperazin-1-yl]carbonyl}-4-fluorobenzyl)-4,5-dimethylpyridazin-3(2H)-one trifluoroacetate] is higher in CC50: < 50 nM for the first, 50 to 500 nM for the second.

First: Cc1c(Cc2ccc(F)c(C(=O)N3CCN(c4ccc(Cl)cc4)C(=O)C3)c2)n[nH]c(=O)c1C [Example 13, 6-(3-{[4-(4-Chlorophenyl)-3-oxopiperazin-1-yl]carbonyl}-4-fluorobenzyl)-4,5-dimethyl-3-oxo-2,3-dihydropyridazin-1-ium trifluoroacetate]
Second: Cc1c(Cc2ccc(F)c(C(=O)N3CCN(c4ccccc4Cl)C(=O)C3)c2)n[nH]c(=O)c1C [Example 14, 6-(3-{[4-(2-Chlorophenyl)-3-oxopiperazin-1-yl]carbonyl}-4-fluorobenzyl)-4,5-dimethyl-3-oxo-2,3-dihydropyridazin-1-ium trifluoroacetate]
The CC50 of the first is lower: < 50 nM for the first, 50 to 500 nM for the second.

First: Cc1c(Cc2ccc(F)c(C(=O)N3CCN(c4ccccc4C(F)(F)F)C(=O)C3)c2)n[nH]c(=O)c1C [Example 15, 6-[4-Fluoro-3-({3-oxo-4-[2-(trifluoromethyl)phenyl]piperazin-1-yl}carbonyl)benzyl]-4,5-dimethyl-3-oxo-2,3-dihydropyridazin-1-ium trifluoroacetate]
Second: Cc1c(Cc2ccc(F)c(C(=O)N3CCN(c4ccc(F)cc4Cl)C(=O)C3)c2)n[nH]c(=O)c1C [Example 16, 6-(3-{[4-(2-Chloro-4-fluorophenyl)-3-oxopiperazin-1-yl]carbonyl}-4-fluorobenzyl)-4,5-dimethyl-3-oxo-2,3-dihydropyridazin-1-ium trifluoroacetate]
The CC50 of the first is lower: < 50 nM for the first, 50 to 500 nM for the second.

`CCN1CCN(C(=O)c2cc(Cc3n[nH]c(=O)c(C)c3C)ccc2F)CC1=O` [Example 17, 6-{3-[(4-Ethyl-3-oxopiperazin-1-yl)carbonyl]-4-fluorobenzyl}-4,5-dimethylpyridazin-3(2H)-one trifluoroacetate] and `CCCCN1CCN(C(=O)c2cc(Cc3n[nH]c(=O)c(C)c3C)ccc2F)CC1=O` [Example 18, 6-{3-[(4-Butyl-3-oxopiperazin-1-yl)carbonyl]-4-fluorobenzyl}-4,5-dimethylpyridazin-3(2H)-one trifluoroacetate] fall in the same range of CC50: 50 to 500 nM for the first, 50 to 500 nM for the second.

`Cc1cc(C)cc(CN2CCN(C(=O)c3cc(Cc4n[nH]c(=O)c(C)c4C)ccc3F)CC2=O)c1` [Example 19, 6-(3-{[4-(3,5-Dimethylbenzyl)-3-oxopiperazin-1-yl]carbonyl}-4-fluorobenzyl)-4,5-dimethylpyridazin-3(2H)-one trifluoroacetate] and `Cc1c(Cc2ccc(F)c(C(=O)N3CCN(CCc4ccccc4)C(=O)C3)c2)n[nH]c(=O)c1C` [Example 21, 6-(4-Fluoro-3-{[3-oxo-4-(2-phenylethyl)piperazin-1-yl]carbonyl}benzyl)-4,5-dimethylpyridazin-3(2H)-one trifluoroacetate] fall in the same range of CC50: 50 to 500 nM for the first, 50 to 500 nM for the second.

Molecule `COc1cccc(N2CCN(C(=O)c3cc(Cc4n[nH]c(=O)c(C)c4C)ccc3F)CC2=O)c1` [Example 22, 6-(4-Fluoro-3-{[4-(3-methoxyphenyl)-3-oxopiperazin-1-yl]carbonyl}benzyl)-4,5-dimethylpyridazin-3(2H)-one trifluoroacetate] has a CC50 of 50 to 500 nM.
